Assay results reported in patent US6780616B1, “Antibiotic caprazamycins and process for producing the same” (Zaidan Hojin Biseibutsu Kagaku Kenkyu Kai Corp., priority 1999, dated 2004).
Values after ≈ are worked out from the molar mass of the structure shown.

Experiments:
[1] = system: Mycobacterium avium kirchberg NIHJ-1605; assay: Antibacterial spectrum, serial dilution in Middlebrook 7H9 liquid medium; type: cell-based; set-up: unit not given here
Procedure: (§1) The antibacterial spectrum of each of caprazamycins A, B, C, E and F against Mycobacterium tuberculosis, and against atypical acid-fast bacteria, Mycobacterium avium kirchberg and Mycobacterium intracellulare, were measured in a Middlebrook 7H9 liquid medium by a serial dilution method. At the same time, antibacterial spectra of rifampicin (RMP) and isonicotinic acid hydrazide (INH) (as comparative drug) against the above-mentioned acid-fast bacteria were measured by the same serial dilution method.

[2] = system: Mycobacterium intracellulare E-1 NIHJ-1618; assay: as above; type: cell-based; set-up: unit not given here
Procedure: as §1

[3] = system: Mycobacterium tuberculosis H37Rv NIHJ-1633; assay: as above; type: cell-based; set-up: unit not given here
Procedure: as §1

[4] = system: Mycobacterium smegmatis ATCC607 VM-R (viomycin-resistant); assay: Antibacterial spectrum, serial dilution on 1% glycerin-supplemented nutrient agar; type: cell-based; settings: Mycolicibacterium smegmatis, ATCC607, read-out: Minimum growth inhibitory concentration
Procedure: (§2) The antibacterial spectrum of caprazamycin A against a variety of microorganisms were measured on a 1% glycerin-supplemented nutrient agar medium by a serial dilution method according to the standard method as provided by Japanese Society of Chemotherapy.
(§3) The antibacterial spectrum of caprazamycin B against a variety of microorganisms were measured on a 1% glycerin-supplemented nutrient agar medium by a serial dilution method according to the standard method as provided by Japanese Society of Chemotherapy.
(§4) The antibacterial spectrum of caprazamycin C against a variety of microorganisms were measured on a 1% glycerin-supplemented nutrient agar medium by a serial dilution method according to the standard method as provided by Japanese Society of Chemotherapy.
(§5) The antibacterial spectrum of caprazamycin E against a variety of microorganisms were measured on a 1% glycerin-supplemented nutrient agar medium by a serial dilution method according to the standard method as provided by Japanese Society of Chemotherapy.
(§6) The antibacterial spectrum of caprazamycin F against a variety of microorganisms were measured on a 1% glycerin-supplemented nutrient agar medium by a serial dilution method according to the standard method as provided by Japanese Society of Chemotherapy.

[5] = system: Mycobacterium smegmatis ATCC607; assay: as above; type: cell-based; settings: Mycolicibacterium smegmatis, read-out: Minimum growth inhibitory concentration
Procedure: as §2, §3, §4, §5, §6

[6] = system: Mycobacterium smegmatis ATCC607 ST-R (streptothricin-resistant); assay: as above; type: cell-based; settings: Mycolicibacterium smegmatis, ATCC607, read-out: Minimum growth inhibitory concentration
Procedure: as §2, §3, §4, §5, §6

[7] = system: Mycobacterium fortuitum; assay: as above; type: cell-based; settings: Mycolicibacterium fortuitum, read-out: Minimum growth inhibitory concentration
Procedure: as §2, §3, §4, §5, §6

[8] = system: Mycobacterium smegmatis ATCC607 RFP-R (rifampicin-resistant); assay: as above; type: cell-based; settings: Mycolicibacterium smegmatis, ATCC607, read-out: Minimum growth inhibitory concentration
Procedure: as §2, §3, §4, §5, §6

[9] = system: Mycobacterium smegmatis ATCC607 PM-R (paromomycin-resistant); assay: as above; type: cell-based; settings: Mycolicibacterium smegmatis, ATCC607, read-out: Minimum growth inhibitory concentration
Procedure: as §2, §3, §4, §5, §6

[10] = system: Mycobacterium vaccae ATCC15483; assay: as above; type: cell-based; settings: Mycolicibacterium vaccae, read-out: Minimum growth inhibitory concentration
Procedure: as §2, §3, §4, §5, §6

[11] = system: Mycobacterium phlei; assay: as above; type: cell-based; settings: Mycolicibacterium phlei, read-out: Minimum growth inhibitory concentration
Procedure: as §2, §3, §4, §5, §6

[12] = system: Mycobacterium smegmatis ATCC607 KM-R (kanamycin-resistant); assay: as above; type: cell-based; settings: Mycolicibacterium smegmatis, ATCC607, read-out: Minimum growth inhibitory concentration
Procedure: as §2, §3, §4, §5, §6

[13] = system: Mycobacterium smegmatis ATCC607 CPM-R (capreomycin-resistant); assay: as above; type: cell-based; settings: Mycolicibacterium smegmatis, ATCC607, read-out: Minimum growth inhibitory concentration
Procedure: as §2, §3, §4, §5, §6

[14] = system: Mycobacterium smegmatis ATCC607 SM-R (streptomycin-resistant); assay: as above; type: cell-based; settings: Mycolicibacterium smegmatis, ATCC607, read-out: Minimum growth inhibitory concentration
Procedure: as §2, §3, §4, §5, §6

[15] = system: Staphylococcus aureus No.17 (methicillin-resistant); assay: Antibacterial spectrum, serial dilution on Müller-Hinton agar; type: cell-based; settings: read-out: Minimum growth inhibitory concentration
[16] = system: Staphylococcus aureus No.5 (methicillin-resistant); assay: as above; type: cell-based; settings: read-out: Minimum growth inhibitory concentration
[17] = system: Bacillus anthracis; assay: microbe, parasite or virus in culture; type: cell-based; settings: read-out: Minimum growth inhibitory concentration
[18] = system: Staphylococcus aureus TY-04282 (methicillin-resistant); assay: Antibacterial spectrum, serial dilution on Müller-Hinton agar; type: cell-based; settings: read-out: Minimum growth inhibitory concentration
[19] = system: Bacillus subtilis PCI1219; assay: as above; type: cell-based; settings: read-out: Minimum growth inhibitory concentration
[20] = system: Bacillus subtilis NRRL B-558; assay: as above; type: cell-based; settings: NRRLB558, read-out: Minimum growth inhibitory concentration
[21] = system: mice (ICR type, 4 weeks-aged, male); assay: Toxicity in mice after intravenous administration; type: in vivo; settings: intravenously, 75 mg/kg
From the text: The dose of a caprazamycin of the general formula (I) or a salt thereof as an active ingredient in the composition of this invention may depend upon the nature of bacterial infections to be treated, a purpose of the therapeutic treatment, degree of the patient's conditions and so on. However, an optimal dose of a caprazamycin can be decided by experts through suitable preliminary tests.

[22] = system: Escherichia coli NIHJ; assay: Antibacterial spectrum, serial dilution on Müller-Hinton agar; type: cell-based; settings: read-out: Minimum growth inhibitory concentration
[23] = system: Staphylococcus aureus MS16526 (methicillin-resistant); assay: as above; type: cell-based; settings: read-out: Minimum growth inhibitory concentration
[24] = system: Staphylococcus aureus MS9610 (multiple drug-resistant); assay: as above; type: cell-based; settings: read-out: Minimum growth inhibitory concentration
[25] = system: Corynebacterium bovis 1810; assay: as above; type: cell-based; settings: read-out: Minimum growth inhibitory concentration
Procedure: (§7) The antibacterial spectrum of caprazamycin B against a variety of microorganisms other than the microorganisms as specified in Table 2 were measured on Müller-Hinton agar medium by a serial dilution method according to the standard method as provided by Japanese Society of Chemotherapy.

[26] = system: Staphylococcus aureus FDA209P; assay: as above; type: cell-based; settings: read-out: Minimum growth inhibitory concentration
Procedure: as §7

[27] = system: Staphylococcus aureus Smith; assay: as above; type: cell-based; settings: read-out: Minimum growth inhibitory concentration
Procedure: as §7

[28] = system: Micrococcus luteus FDA16; assay: as above; type: cell-based; settings: read-out: Minimum growth inhibitory concentration
Procedure: as §7

[29] = system: Bacillus cereus ATCC10702; assay: as above; type: cell-based; settings: read-out: Minimum growth inhibitory concentration
Procedure: as §7

[30] = system: Micrococcus luteus PCI1001; assay: as above; type: cell-based; settings: read-out: Minimum growth inhibitory concentration
Procedure: as §7

SMILES | Minimum Inhibitory Concentration of Compound tested against Test Bacteria [1] | Minimum Inhibitory Concentration of Compound tested against Test Bacteria [2] | Minimum Inhibitory Concentration of Compound tested against Test Bacteria [3] | MIC [4] | MIC [5] | MIC [6] | MIC [7] | MIC [8] | MIC [9] | MIC [10] | MIC [11] | MIC [12] | MIC [13] | MIC [14] | other results
CCCCCCCCCCCCC(CC(=O)OC1CN(C)C(C(OC2OC(CN)C(O)C2O)C2OC(n3ccc(=O)[nH]c3=O)C(O)C2O)C(=O)N(C)C1C(=O)O)OC(=O)CC(C)CC(=O)OC1OC(C)C(OC)C(OC)C1OC (stereo not shown) [Caprazamycin C, caprazamycin C] | <0.025 | 0.78 | 0.78 | 1.56 µg/mL (≈ 1.38 µM) | 1.56 µg/mL (≈ 1.38 µM) | 1.56 µg/mL (≈ 1.38 µM) | 12.5 µg/mL (≈ 11 µM) | 1.56 µg/mL (≈ 1.38 µM) | 1.56 µg/mL (≈ 1.38 µM) | 0.39 µg/mL (≈ 0.344 µM) | 1.56 µg/mL (≈ 1.38 µM) | 0.78 µg/mL (≈ 0.689 µM) | 1.56 µg/mL (≈ 1.38 µM) | 1.56 µg/mL (≈ 1.38 µM) | –
COC1C(C)OC(OC(=O)CC(C)CC(=O)OC(CCCCCCCCC(C)C)CC(=O)OC2CN(C)C(C(OC3OC(CN)C(O)C3O)C3OC(n4ccc(=O)[nH]c4=O)C(O)C3O)C(=O)N(C)C2C(=O)O)C(OC)C1OC (stereo not shown) [Caprazamycin F, caprazamycin F] | 0.1 | 1.56 | – | 1.56 µg/mL (≈ 1.4 µM) | 1.56 µg/mL (≈ 1.4 µM) | 0.78 µg/mL (≈ 0.698 µM) | 12.5 µg/mL (≈ 11.2 µM) | 0.78 µg/mL (≈ 0.698 µM) | 0.78 µg/mL (≈ 0.698 µM) | 0.78 µg/mL (≈ 0.698 µM) | 1.56 µg/mL (≈ 1.4 µM) | 0.78 µg/mL (≈ 0.698 µM) | 0.78 µg/mL (≈ 0.698 µM) | 1.56 µg/mL (≈ 1.4 µM) | –
CCCCCCCCCCCCCC(CC(=O)OC1CN(C)C(C(OC2OC(CN)C(O)C2O)C2OC(n3ccc(=O)[nH]c3=O)C(O)C2O)C(=O)N(C)C1C(=O)O)OC(=O)CC(C)CC(=O)OC1OC(C)C(OC)C(OC)C1OC (stereo not shown) [Caprazamycin A, caprazamycin A] | <0.025 | 0.78 | 1.56 | 0.78 µg/mL (≈ 0.68 µM) | 1.56 µg/mL (≈ 1.36 µM) | 0.78 µg/mL (≈ 0.68 µM) | 6.25 µg/mL (≈ 5.45 µM) | 0.78 µg/mL (≈ 0.68 µM) | 1.56 µg/mL (≈ 1.36 µM) | 0.2 µg/mL (≈ 0.174 µM) | 1.56 µg/mL (≈ 1.36 µM) | 0.78 µg/mL (≈ 0.68 µM) | 0.78 µg/mL (≈ 0.68 µM) | 1.56 µg/mL (≈ 1.36 µM) | –
CCCCCCCCCCCC(CC(=O)OC1CN(C)C(C(OC2OC(CN)C(O)C2O)C2OC(n3ccc(=O)[nH]c3=O)C(O)C2O)C(=O)N(C)C1C(=O)O)OC(=O)CC(C)CC(=O)OC1OC(C)C(OC)C(OC)C1OC (stereo not shown) [Caprazamycin E, caprazamycin E] | <0.025 | 0.78 | 0.78 | 0.39 µg/mL (≈ 0.349 µM) | 1.56 µg/mL (≈ 1.4 µM) | 0.78 µg/mL (≈ 0.698 µM) | 12.5 µg/mL (≈ 11.2 µM) | 0.78 µg/mL (≈ 0.698 µM) | 1.56 µg/mL (≈ 1.4 µM) | 0.39 µg/mL (≈ 0.349 µM) | 1.56 µg/mL (≈ 1.4 µM) | 0.78 µg/mL (≈ 0.698 µM) | 0.39 µg/mL (≈ 0.349 µM) | 1.56 µg/mL (≈ 1.4 µM) | –
COC1C(C)OC(OC(=O)CC(C)CC(=O)OC(CCCCCCCCCCC(C)C)CC(=O)OC2CN(C)C(C(OC3OC(CN)C(O)C3O)C3OC(n4ccc(=O)[nH]c4=O)C(O)C3O)C(=O)N(C)C2C(=O)O)C(OC)C1OC (stereo not shown) [Caprazamycin B, caprazamycin B] | <0.025 | 0.78 | 1.56 | 1.56 µg/mL (≈ 1.36 µM) | 3.13 µg/mL (≈ 2.73 µM) | 1.56 µg/mL (≈ 1.36 µM) | 50 µg/mL (≈ 43.6 µM) | 3.13 µg/mL (≈ 2.73 µM) | 1.56 µg/mL (≈ 1.36 µM) | 0.39 µg/mL (≈ 0.34 µM) | 3.13 µg/mL (≈ 2.73 µM) | 1.56 µg/mL (≈ 1.36 µM) | 1.56 µg/mL (≈ 1.36 µM) | 3.13 µg/mL (≈ 2.73 µM) | MIC [15]: 6.25 µg/mL (≈ 5.45 µM); MIC [16]: 3.13 µg/mL (≈ 2.73 µM); MIC [17]: 0.78 µg/mL (≈ 0.68 µM); MIC [18]: 6.25 µg/mL (≈ 5.45 µM); MIC [19]: 6.25 µg/mL (≈ 5.45 µM); MIC [20]: 12.5 µg/mL (≈ 10.9 µM); Toxicity [21]: did not exhibit any toxicity; MIC [22]: 100 µg/mL (≈ 87.2 µM); MIC [23]: 3.13 µg/mL (≈ 2.73 µM); MIC [24]: 3.13 µg/mL (≈ 2.73 µM); MIC [25]: 3.13 µg/mL (≈ 2.73 µM); MIC [26]: 1.56 µg/mL (≈ 1.36 µM); MIC [27]: 3.13 µg/mL (≈ 2.73 µM); MIC [28]: 3.13 µg/mL (≈ 2.73 µM); MIC [29]: 3.13 µg/mL (≈ 2.73 µM); MIC [30]: 3.13 µg/mL (≈ 2.73 µM)
